Measured values taken from patent US10065990B2, “Cyclic peptide compound, and preparation method, pharmaceutical composition and use thereof” (HANGZHOU GUANYU BIO-MEDICAL CO., LTD, priority 2013, dated 2018).
Read-outs that look alike come from different tables or passages of the source.

How the values were obtained:
[1] = target: HDAC2 (Homo sapiens, UniProt Q92769); assay: HDAC biochemical activity measurement (fluorescent substrate deacetylation);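 note: HDAC2 enzyme with an acetyl-lysine fluorescent substrate, then developer added, fluorescence read at excitation 360 nm and emission 460 nm, inhibition measured across several compound concentrations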; conditions: 37° C. 30 minutes
[2] = target: T1, HDAC7 (Homo sapiens, UniProt Q8WUI4); assay: as above; conditions: HDAC7; 37° C. 30 minutes;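 note: fluorogenic deacetylation assay using acetyl-lysine substrate at 20 µM, enzyme and compound incubated 30 min at 37 °C, then developer added, fluorescence read at 360/460 nm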
T1 sequence (Q8WUI4 1-952): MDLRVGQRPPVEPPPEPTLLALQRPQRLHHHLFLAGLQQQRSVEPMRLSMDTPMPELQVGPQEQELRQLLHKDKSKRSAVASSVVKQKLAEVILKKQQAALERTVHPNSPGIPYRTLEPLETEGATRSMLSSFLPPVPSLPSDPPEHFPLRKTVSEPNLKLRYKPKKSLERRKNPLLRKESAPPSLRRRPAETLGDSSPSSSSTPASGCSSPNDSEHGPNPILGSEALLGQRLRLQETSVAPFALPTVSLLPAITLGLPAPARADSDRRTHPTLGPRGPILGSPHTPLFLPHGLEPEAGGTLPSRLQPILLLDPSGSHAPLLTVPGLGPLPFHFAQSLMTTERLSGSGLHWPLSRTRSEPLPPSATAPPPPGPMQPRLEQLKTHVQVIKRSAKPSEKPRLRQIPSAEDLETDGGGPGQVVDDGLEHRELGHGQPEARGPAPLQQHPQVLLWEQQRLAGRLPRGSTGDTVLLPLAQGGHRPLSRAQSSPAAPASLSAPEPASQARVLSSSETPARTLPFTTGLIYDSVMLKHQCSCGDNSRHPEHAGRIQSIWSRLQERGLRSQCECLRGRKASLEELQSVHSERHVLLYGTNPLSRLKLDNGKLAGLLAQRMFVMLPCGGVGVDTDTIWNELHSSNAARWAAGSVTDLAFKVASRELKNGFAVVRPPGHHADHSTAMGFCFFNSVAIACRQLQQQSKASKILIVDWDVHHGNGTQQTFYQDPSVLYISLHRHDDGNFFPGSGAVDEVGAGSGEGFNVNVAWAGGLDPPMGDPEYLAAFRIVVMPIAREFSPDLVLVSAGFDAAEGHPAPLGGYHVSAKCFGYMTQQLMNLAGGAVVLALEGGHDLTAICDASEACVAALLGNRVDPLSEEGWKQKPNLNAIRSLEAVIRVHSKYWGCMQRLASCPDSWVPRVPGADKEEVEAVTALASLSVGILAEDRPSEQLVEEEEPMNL

[3] = test system: H1975 (non-small cell lung adenocarcinoma); assay: MTT cancer cell growth inhibition; assay type: cell-based; conditions: MTT, 72 hours incubation, H1975 cells, read-out: GI50 H1975
Outline: (§1)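 GI50 values come from MTT viability: after 72 h compound exposure (final 10^−5–10^−10 M, three wells each) of cells plated overnight at 1500/well in 10% FBS medium, MTT was given for 4 h. The DMSO-solubilised formazan was then measured at 570 nm.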

[4] = test system: HCC827 (human non-small cell lung cancer cells); assay: MTT cancer cell growth inhibition; assay type: cell-based; conditions: MTT, 72 hours incubation, HCC827 cells, read-out: GI50 HCC827
Outline: as §1

[5] = test system: HT1080 (human fibrosarcoma cells); assay: MTT cancer cell growth inhibition; assay type: cell-based; conditions: Homo sapiens, HT-1080, 72 h, MTT, 72 hours incubation, read-out: GI50 HT1
Outline: as §1

[6] = test system: Hela (human cervical cancer cells); assay: MTT cancer cell growth inhibition; assay type: cell-based; conditions: Homo sapiens, HeLa, 72 h, MTT, 72 hours incubation, read-out: GI50 Hela
Outline: as §1

[7] = test system: K562 (human leukemia cells); assay: MTT cancer cell growth inhibition; assay type: cell-based; conditions: MTT, 72 hours incubation, K562 cells, read-out: GI50 K562
Outline: as §1

[8] = test system: KBM-5 (human chronic myelogenous leukemia); assay: MTT cancer cell growth inhibition; assay type: cell-based; conditions: MTT, 72 hours incubation, KBM-5 cells, read-out: GI50 KBM-5
Outline: as §1

[9] = test system: KBM5-T315I (human chronic myelogenous leukemia); assay: MTT cancer cell growth inhibition; assay type: cell-based; conditions: MTT, 72 hours incubation, KBM5-T315I cells, read-out: GI50 KBM5-T315I
Outline: as §1

[10] = test system: MDA-MB-231 (breast cancer cells); assay: MTT cancer cell growth inhibition; assay type: cell-based
Outline: as §1

[11] = test system: N-87 (human gastric cancer cells); assay: MTT cancer cell growth inhibition; assay type: cell-based; conditions: MTT, 72 hours incubation, N-87 cells, read-out: GI50 N-87
Outline: as §1

[12] = test system: SGC-7901 (human gastric cancer cells); assay: MTT cancer cell growth inhibition; assay type: cell-based; conditions: MTT, 72 hours incubation, SGC-7901 cells, read-out: GI50 SGC-7901
Outline: as §1

[13] = target: T2, HDAC11 (Homo sapiens, UniProt Q96DB2); assay: HDAC biochemical activity measurement (fluorescent substrate deacetylation);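 note: HDAC11 enzyme acting on an acetyl-lysine fluorogenic substrate, then a developer frees the fluorophore, read at excitation 360 nm and emission 460 nm, IC50 over a compound dilution series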
T2 sequence (Q96DB2 1-347): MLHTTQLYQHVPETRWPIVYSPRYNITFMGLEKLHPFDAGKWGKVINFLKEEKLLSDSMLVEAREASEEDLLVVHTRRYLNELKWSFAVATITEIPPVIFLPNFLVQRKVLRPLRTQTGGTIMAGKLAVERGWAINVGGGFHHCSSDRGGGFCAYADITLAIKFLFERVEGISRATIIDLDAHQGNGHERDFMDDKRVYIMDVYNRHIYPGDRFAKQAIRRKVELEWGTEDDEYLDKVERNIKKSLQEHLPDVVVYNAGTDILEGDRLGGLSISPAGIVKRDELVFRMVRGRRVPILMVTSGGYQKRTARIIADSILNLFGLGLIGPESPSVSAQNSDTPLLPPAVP
Description: The chemical activity of the compound is determined according to the degree of deacetylation inhibition of the HDAC enzyme. This experiment measured the degree of deacetylation related to tumor proliferation and metastasis of HDAC1, HDAC2, HDAC3, HDAC8, HDAC11 five subtypes HDAC enzymes. After the substrate containing an acetylated lysine side chain and HDAC enzyme are labeled with a fluorescent label, the fluorescent substrate is de acetyl. The fluorescent labeled substrate is cleaved by the enzyme, and the fluorescent substance is released, which generates 460 nm emission light under the excitation of 360 nm light.
HDAC substrate was diluted with reaction buffer to 200M (reaction concentration of 20M), the HDAC enzyme was diluted to the appropriate concentration, then added different concentrations of the test compounds and acted at 37° C. 30 minutes, and then added the same volume of 2-times concentration substrate developing solution (developer), incubated at room temperature for 15 minutes.

[14] = Homo sapiens, MDA-MB-231, 72 h, read-out: GI50 MDA-MB-231, MTT, 72 hours incubation, MDA-MB-231 cells
[15] = read-out: IC50 HDAC11, HDAC11, 37° C. 30 minutes

Sequence of HDAC2 (Q92769 whole entry, species assumed): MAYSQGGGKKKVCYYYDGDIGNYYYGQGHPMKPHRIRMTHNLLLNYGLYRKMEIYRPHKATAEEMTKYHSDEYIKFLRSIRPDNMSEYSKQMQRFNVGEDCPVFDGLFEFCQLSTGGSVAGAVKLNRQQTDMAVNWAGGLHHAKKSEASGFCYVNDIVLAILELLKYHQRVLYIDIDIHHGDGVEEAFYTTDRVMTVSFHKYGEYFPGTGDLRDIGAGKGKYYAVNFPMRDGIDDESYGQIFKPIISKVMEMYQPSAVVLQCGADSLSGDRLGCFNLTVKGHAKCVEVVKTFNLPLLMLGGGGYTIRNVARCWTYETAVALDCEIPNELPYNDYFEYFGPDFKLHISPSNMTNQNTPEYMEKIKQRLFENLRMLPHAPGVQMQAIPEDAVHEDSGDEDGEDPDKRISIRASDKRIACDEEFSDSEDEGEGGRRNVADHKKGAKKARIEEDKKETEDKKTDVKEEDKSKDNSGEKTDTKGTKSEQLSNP

| Compound | IC50 [1] [nM] | IC50 HDAC7 [2] | GI50 [5] [nM] | GI50 [6] [nM] | IC50 [13] [nM] | GI50 ([3]; Homo sapiens, NCI-H1975, 72 h) [nM] | GI50 ([4]; Homo sapiens, HCC827, 72 h) [nM] | GI50 ([7]; Homo sapiens, K562, 72 h) [nM] | GI50 ([8]; Homo sapiens, KBM5, 72 h) [nM] | GI50 ([9]; Homo sapiens, 72 h) [nM] | GI50 [10, 14] [nM] | GI50 ([11]; Homo sapiens, 72 h) [nM] | GI50 ([12]; Homo sapiens, SGC-7901, 72 h) [nM] | IC50 [13, 15] [nM] | GI50 ([5]; HT1080 cells) [nM] | GI50 ([6]; Hela cells) [nM] | further results |
| --- | --- | --- | --- | --- | --- | --- | --- | --- | --- | --- | --- | --- | --- | --- | --- | --- | --- |
| C/C=C1\NC(=O)c2nc(ccc2F)CNC(=O)C[C@@H](/C=C/CCSC(C)=O)OC(=O)[C@H](C(C)C)NC1=O [Example 48] | 15 | no activity | 40 | 70 | 93 | – | – | – | – | – | – | – | – | – | – | – | GI50 [3]: 28 nM; GI50 [4]: 42 nM; GI50 [7]: 28 nM; GI50 [8]: 76 nM; GI50 [9]: 61 nM; GI50 ([10]; read-out: GI50 MDA-MB-231, MTT, 72 hours incubation, MDA-MB-231 cells): 35 nM; GI50 [11]: 81 nM; GI50 [12]: 69 nM |
| C/C=C1\NC(=O)c2nccc(n2)CNC(=O)C[C@@H](/C=C/CCSC(C)=O)OC(=O)[C@H](C)NC1=O [Example 24] | 83 | no activity | 40 | 500 | 97 | 37 | 31 | 37 | 68 | 35 | 86 | 35 | 18 | – | – | – | – |
| CC(=O)SCC/C=C/[C@@H]1CC(=O)NCc2cccc(n2)C(=O)NC(=C(C)C)C(=O)N[C@@H](C(C)C)C(=O)O1 [Compound 20] | 77 | no activity | 980 | 10 | – | 35 | 52 | 24 | 61 | 33 | 96 | 62 | 63 | 87 | – | – | – |
| C/C=C1\NC(=O)c2cc(SC)cc(n2)CNC(=O)C[C@@H](/C=C/CCSC(=O)CCCCCC)OC(=O)[C@H](C(C)C)NC1=O [Compound 151] | 24 | no activity | – | – | 95 | 58 | 38 | 67 | 31 | 22 | 37 | 46 | 36 | – | 90 | 70 | – |
| C/C=C1\NC(=O)c2cc(F)cc(n2)CNC(=O)C[C@@H](/C=C/CCSC(=O)CCCCCCC)OC(=O)[C@H](CC)NC1=O [Compound 55] | 34 | no activity | 80 | 80 | – | 52 | 81 | 36 | 89 | 73 | 29 | 55 | 59 | 83 | – | – | – |
| C/C=C1\NC(=O)c2nc(ccc2SC)CNC(=O)C[C@@H](/C=C/CCSC(=O)CCCCC)OC(=O)[C@H](C(C)C)NC1=O [Compound 153] | 31 | no activity | – | – | 72 | 31 | 28 | 32 | 28 | 31 | 57 | 28 | 83 | – | 80 | 50 | – |
| C=C1NC(=O)c2cc(SC)cc(n2)CNC(=O)C[C@@H](/C=C/CCSC(C)=O)OC(=O)[C@H](C(C)C)NC1=O [Compound 205] | 52 | no activity | – | – | 77 | 64 | 62 | 53 | 15 | 27 | 39 | 49 | 59 | – | 10 | 70 | – |
| C/C=C1\NC(=O)c2nc(ccc2F)CNC(=O)C[C@@H](/C=C/CCSC(=O)CCCCCCC)OC(=O)[C@H](C(C)C)NC1=O [Compound 30] | 56 | no activity | 80 | 80 | – | 39 | 82 | 38 | 82 | 22 | 37 | 30 | 35 | 84 | – | – | – |
| C/C=C1\NC(=O)c2cccc(n2)CNC(=O)C[C@@H](/C=C/CCSC(=O)CCC)OC(=O)[C@H](C(C)C)NC1=O [Compound 5] | 53 | no activity | 70 | 50 | – | 23 | 55 | 32 | 72 | 33 | 82 | 37 | 43 | 111 | – | – | – |
| C/C=C1\NC(=O)c2cccc(n2)CNC(=O)C[C@@H](/C=C/CCSC(C)=O)OC(=O)[C@H](CCCCN)NC1=O [Compound 15] | 47 | no activity | 38700 | 15700 | – | 38 | 51 | 26 | 95 | 16 | 91 | 29 | 53 | 106 | – | – | – |
| C/C=C1\NC(=O)c2cc(SC)cc(n2)CNC(=O)C[C@@H](/C=C/CCSC=O)OC(=O)[C@H](C(C)C)NC1=O [Compound 169] | 52 | no activity | – | – | 92 | 44 | 29 | 37 | 51 | 47 | 35 | 55 | 62 | – | 60 | 20 | – |
